“And” between values parts separate entries of the source, which are not always exact repeats. Equal entries are not always repeated.
Test system: Coronavirus (hCoV-229E)
Experiment: Inactivation efficiency against coronavirus hCoV-229E strain (residual TCID50 on Huh-7 cells)
Assay type: cell-based
Conditions: for CPE test (virus replication in cell wells): wells 1-10; for average inactivation efficiency against virus / inactivation efficiency against the virus: hCoV-229E virus; for average inactivation efficiency against virus: three experiments; for inactivation efficiency against the virus: single experiment

O=C(O[C@@H]1Cc2c(O)cc(O)cc2O[C@@H]1c1cc(O)c(O)c(O)c1)c1cc(O)c(O)c(O)c1 [EGCG, Epigallocatechin gallate]
CPE test (virus replication in the cell wells) (1 mM EGCG + virus, co-incubated 5 minute, second experiment, dilution factor 10^8, wells 1-10): − | CPE test (virus replication in the cell wells) (1 mM EGCG + virus, co-incubated 5 minutes, dilution factor 10^1, wells 1-10, third experiment): + | CPE test (virus replication in the cell wells) (1 mM EGCG + virus, co-incubated 5 minutes, dilution factor 10^2, wells 1-10, third experiment): + | CPE test (virus replication in the cell wells) (1 mM EGCG + virus, co-incubated 5 minutes, dilution factor 10^3, wells 1-10, third experiment): + | CPE test (virus replication in the cell wells) (1 mM EGCG + virus, co-incubated 5 minutes, dilution factor 10^4, wells 1-10, third experiment): + | CPE test (virus replication in the cell wells) (1 mM EGCG + virus, co-incubated 5 minutes, dilution factor 10^5, wells 1-10, third experiment): + and − | CPE test (virus replication in the cell wells) (1 mM EGCG + virus, co-incubated 5 minutes, dilution factor 10^6, wells 1-10, third experiment): − and + | CPE test (virus replication in the cell wells) (1 mM EGCG + virus, co-incubated 5 minutes, dilution factor 10^7, wells 1-10, third experiment): − | CPE test (virus replication in the cell wells) (1 mM EGCG + virus, co-incubated 5 minutes, dilution factor 10^8, wells 1-10, third experiment): − | CPE test (virus replication in cell wells) (1 mM EGCG + virus, hCoV-229E co-incubated 1 minute, second experiment, dilution factor 10^1): + | CPE test (virus replication in cell wells) (1 mM EGCG + virus, hCoV-229E co-incubated 1 minute, second experiment, dilution factor 10^2): + | CPE test (virus replication in cell wells) (1 mM EGCG + virus, hCoV-229E co-incubated 1 minute, second experiment, dilution factor 10^3): + | CPE test (virus replication in cell wells) (1 mM EGCG + virus, hCoV-229E co-incubated 1 minute, second experiment, dilution factor 10^4): + and − | CPE test (virus replication in cell wells) (1 mM EGCG + virus, hCoV-229E co-incubated 1 minute, second experiment, dilution factor 10^5): − and + | CPE test (virus replication in cell wells) (1 mM EGCG + virus, hCoV-229E co-incubated 1 minute, second experiment, dilution factor 10^6): − | CPE test (virus replication in cell wells) (1 mM EGCG + virus, hCoV-229E co-incubated 1 minute, second experiment, dilution factor 10^7): − | CPE test (virus replication in cell wells) (1 mM EGCG + virus, hCoV-229E co-incubated 1 minute, second experiment, dilution factor 10^8): − | CPE test (virus replication in cell wells) (1 mM EGCG + virus, hCoV-229E co-incubated 1 minute, third experiment, dilution factor 10^1): + | CPE test (virus replication in cell wells) (1 mM EGCG + virus, hCoV-229E co-incubated 1 minute, third experiment, dilution factor 10^2): + | CPE test (virus replication in cell wells) (1 mM EGCG + virus, hCoV-229E co-incubated 1 minute, third experiment, dilution factor 10^3): + | CPE test (virus replication in cell wells) (1 mM EGCG + virus, hCoV-229E co-incubated 1 minute, third experiment, dilution factor 10^4): + | CPE test (virus replication in cell wells) (1 mM EGCG + virus, hCoV-229E co-incubated 1 minute, third experiment, dilution factor 10^5): + and − | CPE test (virus replication in cell wells) (1 mM EGCG + virus, hCoV-229E co-incubated 1 minute, third experiment, dilution factor 10^6): − and + | CPE test (virus replication in cell wells) (1 mM EGCG + virus, hCoV-229E co-incubated 1 minute, third experiment, dilution factor 10^7): − | CPE test (virus replication in cell wells) (1 mM EGCG + virus, hCoV-229E co-incubated 1 minute, third experiment, dilution factor 10^8): − | average inactivation efficiency against virus (1 mM EGCG, 1 minute): 49.71% | inactivation efficiency against the virus (1 mM EGCG, 5 minutes): 49.88% and 36.90% | average inactivation efficiency against virus (1 mM EGCG, 5 minutes): 45.55% | CPE test (virus replication in cell wells) (5 mM EGCG + hCoV-229E virus, co-incubated 1 minute, first experiment, dilution factor 10^2): + | CPE test (virus replication in cell wells) (5 mM EGCG + hCoV-229E virus, co-incubated 1 minute, first experiment, dilution factor 10^3): + | CPE test (virus replication in cell wells) (5 mM EGCG + hCoV-229E virus, co-incubated 1 minute, first experiment, dilution factor 10^4): + | CPE test (virus replication in cell wells) (5 mM EGCG + hCoV-229E virus, co-incubated 1 minute, first experiment, dilution factor 10^5): + and − | CPE test (virus replication in cell wells) (5 mM EGCG + hCoV-229E virus, co-incubated 1 minute, first experiment, dilution factor 10^6): − | CPE test (virus replication in cell wells) (5 mM EGCG + hCoV-229E virus, co-incubated 1 minute, first experiment, dilution factor 10^7): − | CPE test (virus replication in cell wells) (5 mM EGCG + hCoV-229E virus, co-incubated 1 minute, first experiment, dilution factor 10^8): − | CPE test (virus replication in the cell wells) (5 mM EGCG + virus, co-incubated 5 minute, first experiment, dilution factor 10^2, wells 1-10): + | CPE test (virus replication in the cell wells) (5 mM EGCG + virus, co-incubated 5 minute, first experiment, dilution factor 10^3, wells 1-10): + | CPE test (virus replication in the cell wells) (5 mM EGCG + virus, co-incubated 5 minute, first experiment, dilution factor 10^4, wells 1-10): + | CPE test (virus replication in the cell wells) (5 mM EGCG + virus, co-incubated 5 minute, first experiment, dilution factor 10^5, wells 1-10): − and + | CPE test (virus replication in the cell wells) (5 mM EGCG + virus, co-incubated 5 minute, first experiment, dilution factor 10^6, wells 1-10): − | CPE test (virus replication in the cell wells) (5 mM EGCG + virus, co-incubated 5 minute, first experiment, dilution factor 10^7, wells 1-10): − | CPE test (virus replication in the cell wells) (5 mM EGCG + virus, co-incubated 5 minute, first experiment, dilution factor 10^8, wells 1-10): − | CPE test (virus replication in the cell wells) (5 mM EGCG + virus, co-incubated 5 minute, second experiment, dilution factor 10^2, wells 1-10): + | CPE test (virus replication in the cell wells) (5 mM EGCG + virus, co-incubated 5 minute, second experiment, dilution factor 10^3, wells 1-10): + | CPE test (virus replication in the cell wells) (5 mM EGCG + virus, co-incubated 5 minute, second experiment, dilution factor 10^4, wells 1-10): + | CPE test (virus replication in the cell wells) (5 mM EGCG + virus, co-incubated 5 minute, second experiment, dilution factor 10^5, wells 1-10): − and + | CPE test (virus replication in the cell wells) (5 mM EGCG + virus, co-incubated 5 minute, second experiment, dilution factor 10^6, wells 1-10): − and + | CPE test (virus replication in the cell wells) (5 mM EGCG + virus, co-incubated 5 minute, second experiment, dilution factor 10^7, wells 1-10): − | CPE test (virus replication in the cell wells) (5 mM EGCG + virus, co-incubated 5 minute, second experiment, dilution factor 10^8, wells 1-10): − | CPE test (virus replication in the cell wells) (5 mM EGCG + virus, co-incubated 5 minutes, dilution factor 10^1, wells 1-10, third experiment): + | CPE test (virus replication in the cell wells) (5 mM EGCG + virus, co-incubated 5 minutes, dilution factor 10^2, wells 1-10, third experiment): + | CPE test (virus replication in the cell wells) (5 mM EGCG + virus, co-incubated 5 minutes, dilution factor 10^3, wells 1-10, third experiment): + | CPE test (virus replication in the cell wells) (5 mM EGCG + virus, co-incubated 5 minutes, dilution factor 10^4, wells 1-10, third experiment): + | CPE test (virus replication in the cell wells) (5 mM EGCG + virus, co-incubated 5 minutes, dilution factor 10^5, wells 1-10, third experiment): + and − | CPE test (virus replication in the cell wells) (5 mM EGCG + virus, co-incubated 5 minutes, dilution factor 10^6, wells 1-10, third experiment): − and + | CPE test (virus replication in the cell wells) (5 mM EGCG + virus, co-incubated 5 minutes, dilution factor 10^7, wells 1-10, third experiment): − | CPE test (virus replication in the cell wells) (5 mM EGCG + virus, co-incubated 5 minutes, dilution factor 10^8, wells 1-10, third experiment): − | CPE test (virus replication in cell wells) (5 mM EGCG + virus, hCoV-229E co-incubated 1 minute, second experiment, dilution factor 10^2): + | CPE test (virus replication in cell wells) (5 mM EGCG + virus, hCoV-229E co-incubated 1 minute, second experiment, dilution factor 10^3): + and − | CPE test (virus replication in cell wells) (5 mM EGCG + virus, hCoV-229E co-incubated 1 minute, second experiment, dilution factor 10^4): + | CPE test (virus replication in cell wells) (5 mM EGCG + virus, hCoV-229E co-incubated 1 minute, second experiment, dilution factor 10^5): − and + | CPE test (virus replication in cell wells) (5 mM EGCG + virus, hCoV-229E co-incubated 1 minute, second experiment, dilution factor 10^6): − | CPE test (virus replication in cell wells) (5 mM EGCG + virus, hCoV-229E co-incubated 1 minute, second experiment, dilution factor 10^7): − | CPE test (virus replication in cell wells) (5 mM EGCG + virus, hCoV-229E co-incubated 1 minute, second experiment, dilution factor 10^8): − | CPE test (virus replication in cell wells) (5 mM EGCG + virus, hCoV-229E co-incubated 1 minute, third experiment, dilution factor 10^2): + | CPE test (virus replication in cell wells) (5 mM EGCG + virus, hCoV-229E co-incubated 1 minute, third experiment, dilution factor 10^3): + | CPE test (virus replication in cell wells) (5 mM EGCG + virus, hCoV-229E co-incubated 1 minute, third experiment, dilution factor 10^4): + | CPE test (virus replication in cell wells) (5 mM EGCG + virus, hCoV-229E co-incubated 1 minute, third experiment, dilution factor 10^5): + and − | CPE test (virus replication in cell wells) (5 mM EGCG + virus, hCoV-229E co-incubated 1 minute, third experiment, dilution factor 10^6): − and + | CPE test (virus replication in cell wells) (5 mM EGCG + virus, hCoV-229E co-incubated 1 minute, third experiment, dilution factor 10^7): − | CPE test (virus replication in cell wells) (5 mM EGCG + virus, hCoV-229E co-incubated 1 minute, third experiment, dilution factor 10^8): − | inactivation efficiency against the virus (5 mM EGCG, 1 minute): 68.38% and 49.88% | average inactivation efficiency against virus (5 mM EGCG, 1 minute): 62.21% | inactivation efficiency against the virus (5 mM EGCG, 5 minutes): 60.19% and 36.90% and 49.88% | average inactivation efficiency against virus (5 mM EGCG, 5 minutes): 48.99%
